Laboratory results taken from patent publication US8563602B2, “Method of improving animal tissue quality by supplementing the animal diet with oleic acid and selected tocols” (E.I. du Pont de Nemours and Co., priority 2004, dated 2013).
Marks after values point to notes of the source that are not given here.

Columns and labels:
swine [1] = test: 2003 swine feed test: ground pork visual color score on simulated retail display; type: in vivo; settings: recalculated from Table 6: oleic acid level High or tocotrienol addition 225 ppm
Source text: (§1) Applicants assessed the effects of supplementing the animal diet with oleic acid and tocotrienol on pork meat quality in an experiment in which data from pigs fed one of four dietary treatments were compared. Seventy-two barrows (approximately 20 kg) were randomly placed in pens with water and feed provided ad libitum at the Pioneer Livestock Nutrition Center (PLNC) in Polk City, Iowa. Ad libitum swine feeding continued for 49 days (through Mar. 4, 2003) until the average weight reached 32 kg. A uniform group of 64 pigs was selected, and the pigs were randomly assigned to each of four treatments with 16 experimental units (individually housed pigs) per dietary treatment.
(§2) On Apr. 22, 2003 (Day 1 of the feed test) the feeders were emptied and the dietary treatments were commenced and continued until Jul. 14, 2003 (Day 83). Dietary treatments consisted of two levels of oleic acid (normal and high) with or without tocotrienol (0 or 225 ppm), as summarized below:
(§3) Samples of ground pork were packaged in PVC wrap and kept on simulated retail display for seven days. During that time trained panelists made a subjective determination of the overall color score and percent discoloration of the ground pork.
Overall color was graded on a scale of 1.0 to 5.0 as follows: 1.0=bright grayish-pink or reddish-pink (acceptable), 2.0=grayish-pink or reddish-pink (acceptable), 3.0=slightly dark pink/red/pink/tan(acceptable), 3.5=threshold of retail acceptability, 4.0=moderately tan/pinkish-red (unacceptable), and 5.0=dark tan or dark pinkish-red (unacceptable).

swine [2] = test: 2003 swine feed test: TBARS content of uncooked and cooked ground pork; type: in vivo; settings: recalculated from Table 10: oleic acid level High or tocotrienol addition 225 ppm
Source text: as §1, §2
[…]. Cooked ground pork was measured for TBARS concentration at 0 hours and 24 hours after cooking.

steers = test: 2004 cattle feed test: uncooked ribeye steak discoloration; type: in vivo; settings: recalculated from Table 16: oleic acid level High or tocotrienol addition 150 ppm
Source text: Applicants assessed the effects of supplementing the animal diet with oleic acid and tocotrienol on beef quality in an experiment in which data from steers fed one of four dietary treatments were compared. The steers were blocked by weight (heavy or light) and assigned to eight outdoor group pens with five steers per pen. Pens were randomly assigned within each of the two weight blocks to four dietary treatments: (1) simulated oil-rich corn grain (coarse corn grits with corn oil added as 6% of the weight of the grits plus oil) (CO); (2) simulated oil-rich corn grain (coarse corn grits with a similar level of corn oil) with supplemental tocotrienol (CO+TT), (3) simulated high oleic acid corn grain (coarse corn grits with high oleic sunflower oil added as 6% of the weight of the grits plus oil) (HO); and (4) simulated high oleic acid corn grain (coarse corn grits with high oleic sunflower oil added as 6% of the weight of the grits plus oil) with supplemental tocotrienol (HO+TT); as summarized below:
The steers were fed their respective dietary supplements for 133 days starting Apr. 12, 2004 and ending Aug. 23, 2004. The cattle were loaded on Aug. 24, 2004 and transported to Emporia, Kans. for harvest at the IBP packing plant. Steaks and ground beef samples were evaluated for, among other things, color, shelf life (as measured by percent discoloration over time) and rancidity (as measured by TBARS concentration over time).
Ribeye steaks utilized for color evaluation were placed onto 17S foam trays with meat, fish and poultry pads (Dri-Loc AC-50) and wrapped with polyvinyl chloride (PVC) film. The steaks were placed under simulated retail display at 34+/−3 degree F. in open top cases programmed to defrost twice daily for seven days. During that time trained panelists made subjective determinations of the overall color score and percent discoloration of the ribeye steaks. […]
Percent discoloration was also determined subjectively. […]

swine [3] = test: 2003 swine feed test: ground pork discoloration on simulated retail display; type: in vivo; settings: recalculated from Table 8: oleic acid level High or tocotrienol addition 225 ppm
Source text: as §1, §2, §3
Percent discoloration was also determined subjectively. In the table that follows, a higher number indicates a greater percent discoloration: […]

swine [4] = test: 2003 swine feed test: belly adipose tissue fatty acid composition and iodine value; type: in vivo; settings: recalculated from Table 4: oleic acid level High or tocotrienol addition 225 ppm
Source text: as §1, §2
(§4) In the normal or control (CO) diet, the total dietary content of oil was 5.5 wt % of the feed. The oil was a typical corn oil having an oleic acid content of 29.6 wt % of the fatty acid fraction. In the high-oleic acid (HO) diet, the total dietary content of oil was still 5.5 wt %, but the oil was high-oleic sunflower oil with an oleic acid content of 80.2 wt % of the fatty acid fraction. The high oleic sunflower oil was purchased from Cargill, Inc. All four experimental diets were formulated with soybean meal and corn flaking grits. The latter, being largely devoid of oil, were used in conjunction with the corn and high-oleic vegetable oils to achieve the desired dietary fatty acid content.
The tocotrienol used to supplement the (TT) and the (HO+TT) diets was obtained commercially from Fuji Chemical Industries (U.S.A.) Inc. of Robbinsville, N.J., and contained 7.5% alpha-, 12.3% gamma- and 3.0% delta-tocotrienol (a total tocotrienol content of 22.8%), as well as 7.2% alpha-tocopherol.
The fatty acid composition and iodine values in the pork belly adipose tissue was measured.

swine [5] = test: 2003 swine feed test: belly thickness and flex; type: in vivo; settings: recalculated from Table 2: oleic acid level High or tocotrienol addition 225 ppm
Source text: as §1, §2
as §4, with “content. […]” for “content.”
The pigs were slaughtered at an average weight of 120 kg on Jul. […] Following a 24 hour chill period, the carcasses were transferred to the University of Missouri processing lab, where weight yields were recorded and meat tissue was evaluated.
The right pork carcass side was fabricated into primal and sub-primal cuts and the bellies were evaluated for thickness, firmness and fatty acid profile.

[6] = In vitro addition of gamma-tocopherol to ground pork: TBARS of cooked patties; settings: GT 100 ppm added in vitro to raw ground pork, HO = pork from swine fed high oleic diet
Procedure: Applicants assessed the effects of in vitro addition of gamma-tocopherol to ground pork from swine fed a diet supplemented with oleic acid in order to evaluate gamma tocopherol's value as an animal feed supplement when used in conjunction with oleic acid. Gamma-tocopherol was added to the raw (uncooked) ground pork from swine whose diet was not supplemented with oleic acid and swine whose diet was supplemented with oleic acid. Ground pork from pigs fed the respective treatments were formed into patties, cooked and refrigerated for two days in plastic pouches. Samples of the cooked patties were then submitted for TBARS (thiobarbituric acid reactive substances) determination at 0 hours and 24 hours following refrigeration.

CCCCCCCC/C=C\CCCCCCCC(=O)O [Oleic Acid, oleic acid]
Ground pork visual color score (swine [1]; Day 3): 1.81 | Ground pork visual color score (swine [1]; Day 4): 2.67 | Ground pork visual color score (swine [1]; Day 5): 4.38 | Ground pork oxidation (TBARS) (swine [2]; cooked, 0 hours): 0.69^b mg malonaldehyde/kg sample | Ground pork oxidation (TBARS) (swine [2]; cooked, 24 hours): 1.73^b mg malonaldehyde/kg sample | Ground pork oxidation (TBARS) (swine [2]; uncooked, Day 0): 0.28 mg malonaldehyde/kg sample | Ground pork oxidation (TBARS) (swine [2]; uncooked, Day 4): 0.34 mg malonaldehyde/kg sample | Ground pork oxidation (TBARS) (swine [2]; uncooked, Day 7): 0.41 mg malonaldehyde/kg sample | Uncooked ribeye steak discoloration (steers; Day 3): 1.4 | Uncooked ribeye steak discoloration (steers; Day 5): 1.1^b | Uncooked ribeye steak discoloration (steers; Day 7): 1.6 | Ground pork discoloration (swine [3]; Day 3): 2.41 | Ground pork discoloration (swine [3]; Day 4): 2.84 | Ground pork discoloration (swine [3]; Day 5): 4.64 | Iodine Value (IV) (swine [4]): 63.7^b | Monounsaturated Fatty Acid (MUFA) (swine [4]): 55.55^b | Polyunsaturated Fatty Acids (PUFA) (swine [4]): 9.67^b | Belly thickness (swine [5]): 35.6 mm | Lateral flex (swine [5]): 11.0^b | Vertical flex (swine [5]): 18.7

Cc1c(O)cc2c(c1C)O[C@](C)(CCC[C@H](C)CCC[C@H](C)CCCC(C)C)CC2 [GT, gamma-tocopherol]
TBARS content of cooked ground pork patties ([6]; 0 hours following refrigeration): 0.746 mg malonaldehyde/kg sample | TBARS content of cooked ground pork patties ([6]; 24 hours following refrigeration): 1.24 mg malonaldehyde/kg sample
